Entries after “also recorded” stand apart in the source; their conditions may differ. Where two headings read alike, the source gives them in different places.
Key:
HIV-1 protease = HIV-1 protease (Human immunodeficiency virus type 1 group M subtype B, UniProt P03369); test: biochemical
Protocol: HIV-1 protease activity was measured at 37° C. using a continuous fluorimetric assay based on the method of Toth et al., (Toth et al., 1990, Int. J. Pept. Res. 36 544-550). The substrate, 2-aminobenzoyl-threonine-isoleucine-norleucine-(p-nitro)-phenylalanine-glutamine-arginine-NH2 (Abz-NF^* -6), was synthesised by solid phase peptide synthesis (Kent et al., 1991, In: Peptides 1990: Proceedings of the Twenty-First European Peptide Symposium (Girault, E. and Andrew, D. eds.) pp 172-173, ESCOM, Leiden). Enzyme activity was measured as the increase in fluorescence intensity upon substrate hydrolysis. The change in fluorescence intensity was monitored with a Perkin Elmer LS50B luminescence spectrometer fitted with a thermostatted micro cuvette holder. Measurements were carried out using an excitation wavelength of 320 nm (bandwith 5 nm) and an emission wavelength of […] (bandwith 5 nm).
Inhibition assays were routinely carried out at pH 6.5 and μ=0.1 M using a single substrate concentration. The assay mixtures contained 50 μM Abz-NF^* -6 in 100 mM 2-(N-morpholino)ethanesulphonate buffer, containing 10% (v/v) glycerol and 50 μg/ml bovine serum albumin, in a total final volume of 400 μl. Where inhibitors had to be dissolved in dimethyl sulphoxide or other organic solvents, the final concentration of solvent in the control and inhibition assays were kept absolutely constant because of the severe inhibitory effect of some solvents on the enzyme activity (Bergman et al., 1992, 17th Ann. Lorne Conf. on Protein Struct. and Funct. Abstr.). In all assays, the reaction was initiated by the addition of 10 μl of enzyme solution.

HIV = test: Activity against HIV in cells / cell culture; type: cell-based
[1] = Table 7, pH 6.5, 37° C., read-out: IC50
[2] = Table 9, R isomer, read-out: IC50
[3] = Table 10, pH 6.5, 37° C., read-out: IC50
[4] = Table 9, S isomer, read-out: IC50

## CC(C)(C)NC(=O)[C@@H]1CCCN1C[C@H](O)[C@@H]1Cc2ccc(cc2)OCCCC(=O)N[C@@H](CC(N)=O)C(=O)N1 [Compound 39]
HIV-1 protease; read-out: IC50
  IC50: 490 nM

## CC(C)N(C(=O)[C@@H]1CCCN1C[C@@H](O)[C@@H]1Cc2ccc(cc2)OCCCC(=O)N[C@@H](CC(N)=O)C(=O)N1)C(C)C [Compound 40]
HIV-1 protease
  IC50: 106000 nM
  protease inhibition, stated in words: much less active

## CC(C)N(C(=O)[C@@H]1CCCN1C[C@H](O)[C@@H]1Cc2ccc(cc2)OCCCC(=O)N[C@@H](CC(N)=O)C(=O)N1)C(C)C [Compound 41]
HIV-1 protease
  IC50: 290000 nM
  protease inhibition, stated in words: much less active

## CC(C)(C)NC(=O)[C@@H]1CCCCN1C[C@H](O)[C@@H]1Cc2ccc(cc2)OCCCC(=O)N[C@@H](CC(N)=O)C(=O)N1 [Compound 45]
HIV-1 protease
  IC50: 5600 nM

## CC[C@H](C)[C@H](NC(=O)[C@H](Cc1ccccc1)NC[C@@H](O)[C@@H]1Cc2ccc(cc2)OCCCC(=O)N[C@@H](C(C)C)C(=O)N1)C(=O)N[C@H](C(N)=O)C(C)C [Compound 46]
HIV-1 protease
  protease inhibition, stated in words: there was not a great deal of difference

## CC[C@H](C)[C@H](NC(=O)[C@H](Cc1ccccc1)NC[C@H](O)[C@@H]1Cc2ccc(cc2)OCCCC(=O)N[C@@H](C(C)C)C(=O)N1)C(=O)N[C@H](C(N)=O)C(C)C [Compound 47]
HIV-1 protease
  protease inhibition, stated in words: there was not a great deal of difference

## CC(C)C[C@@H]1NC(=O)CCCOc2ccc(cc2)C[C@@H]([C@H](O)CN2CCCC[C@H]2C(=O)NC(C)(C)C)NC1=O [Compound 54]
HIV-1 protease
  protease inhibition, stated in words: slightly better than the isopropyl of 48/49

## CC(C)C[C@@H]1NC(=O)CCCOc2ccc(cc2)C[C@@H]([C@@H](O)CN2CCCC[C@H]2C(=O)NC(C)(C)C)NC1=O [Compound 55]
HIV-1 protease
  protease inhibition, stated in words: slightly better than the isopropyl of 48/49

## CC(=O)Nc1ccc(S(=O)(=O)N(CCC(C)C)C[C@H](O)[C@@H]2Cc3ccc(cc3)OCCCC(=O)N[C@@H](C(C)C)C(=O)N2)cc1 [Compound 59]
HIV-1 protease
  protease inhibition, stated in words: potent inhibitors of HIV-1 protease

## CC(C)CCN(C[C@@H](O)[C@@H]1Cc2ccc(cc2)OCCCC(=O)N[C@@H](C(C)C)C(=O)N1)S(=O)(=O)c1ccc(N)cc1 [Compound 60]
HIV-1 protease
  protease inhibition, stated in words: Greater activity; also recorded: potent inhibitors of HIV-1 protease
HIV-1 protease; [1]
  IC50: 2 nM

## CC(C)CCN(C[C@@H](O)[C@@H]1Cc2ccc(cc2)OCCCCC(=O)N[C@@H](C(C)C)C(=O)N1)S(=O)(=O)c1ccc(N)cc1 [Compound 62]
HIV-1 protease; [1]
  IC50: 1 nM

## CC(C)CCN(C[C@@H](O)[C@@H]1Cc2ccc(cc2)OCCCCCC(=O)N[C@@H](C(C)C)C(=O)N1)S(=O)(=O)c1ccc(N)cc1 [Compound 64]
HIV-1 protease; read-out: IC50
  IC50: 2 nM

## CC(C)[C@@H]1NC(=O)CCCOc2ccc(cc2)C[C@@H]([C@H](O)CN2CCN(Cc3ccccc3)CC2C(=O)NC(C)(C)C)NC1=O (stereo partly shown) [Compound 82]
HIV-1 protease
  protease inhibition, stated in words: increased potency

## CC(C)[C@@H]1NC(=O)CCCOc2ccc(cc2)C[C@@H]([C@@H](O)CN2CCN(Cc3ccccc3)CC2C(=O)NC(C)(C)C)NC1=O (stereo partly shown) [Compound 83]
HIV-1 protease
  protease inhibition, stated in words: increased potency

## CC[C@H](C)[C@@H]1NC(=O)[C@@H](NC[C@@H](O)[C@H](Cc2ccccc2)NC(=O)[C@@H](NC(=O)[C@H](CC(C)C)NC(C)=O)C(C)C)Cc2ccc(cc2)OCCCNC1=O [Compound 87, [2(R),3(S),11'(S),8'(S)]-3-[-Acetyl-(S)-leucinyl-(S)-valinyl]amino-4-phenyl-1-[11'-[7',10'-dioxo-8'-(1-methylpropyl)-2'-oxa-6',9'-diazabicyclo[11.2.2]heptadeca-13',15',16'-triene]amino]butan-2-ol]
HIV-1 protease
  protease inhibition, stated in words: little effect
HIV-1 protease; [2]
  IC50: 2 nM

## CC[C@H](C)[C@@H]1NC(=O)[C@@H](NC[C@@H](O)[C@H](Cc2ccccc2)NC(=O)[C@@H](NC(=O)[C@H](CC(C)C)NC(C)=O)C(C)C)Cc2ccc(cc2)OCCCCNC1=O [Compound 88]
HIV-1 protease
  protease inhibition, stated in words: little effect
HIV-1 protease; [2]
  IC50: 5 nM

## CC[C@H](C)[C@@H]1NC(=O)[C@@H](NC[C@@H](O)[C@H](Cc2ccccc2)NC(=O)OC(C)(C)C)Cc2ccc(cc2)OCCCNC1=O [Compound 89, [2R, 3S, 11'S, 8'S]-3-[t-butoxycarbonyl]amino-4-phenyl-1-[11'-[7', 10'-dioxo-8'-(1-methylpropyl)-2'-oxa-6',9'-diazabicyclo[11.2.2]heptadeca-13',15',16'-triene]amino]butan-2-ol]
HIV-1 protease; [2]
  IC50: 15 nM

## CC[C@H](C)[C@@H]1NC(=O)[C@@H](NC[C@H](Cc2ccccc2)NC(=O)OC(C)(C)C)Cc2ccc(cc2)OCCCNC1=O [Compound 90, [2S, 11'S, 8'S]-2-[t-butoxycarbonyl]amino-3-phenyl-1-[11'-[7',10'-dioxo-8'-(-1-methylpropyl)-2'-oxa-6',9'-diazabicyclo[11.2.2]heptadeca-13',15',16'-triene]amino]propane]
HIV-1 protease; [2]
  IC50: 150 nM

## CC[C@H](C)[C@@H]1NC(=O)[C@@H](NC[C@@H](O)[C@H](Cc2ccccc2)NC(=O)O[C@H]2CCOC2)Cc2ccc(cc2)OCCCNC1=O [Compound 91, [2R, 3S, 11'S, 8'S]-3-[3S-tetrahydrofuranyloxy]amino-4-phenyl-1-[11'-[7',10'-dioxo-8'-(1-methylpropyl)-2'-oxa-6',9'-diazabicyclo[11.2.2]heptadeca-13',15',16'-triene]amino]butan-2-ol]
HIV-1 protease
  protease inhibition, stated in words: not better as a P2 filler over the t-butyl group in 89
HIV-1 protease; [2]
  IC50: 15 nM

## CC[C@H](C)[C@@H]1NC(=O)[C@@H](NCC(O)[C@H](Cc2ccccc2)NC(=O)c2cccc(C)c2)Cc2ccc(cc2)OCCCNC1=O (stereo partly shown) [Compound 92]
HIV-1 protease; read-out: IC50
  IC50: 50 nM

## O=C1N(Cc2ccc(CO)cc2)[C@H](Cc2ccccc2)[C@H](O)[C@@H](O)[C@@H](Cc2ccccc2)N1Cc1ccc(CO)cc1 [Compound 94, reference compound]
HIV-1 protease; read-out: IC50
  IC50: 1 nM

## CC[C@H](C)[C@@H]1NC(=O)[C@@H](NC[C@@H](O)[C@H](Cc2ccc(OCC(=O)O)cc2)NC(=O)OC(C)(C)C)Cc2ccc(cc2)OCCCNC1=O [Compound 99]
HIV-1 protease; [3]
  IC50: 5 nM

## CC[C@H](C)[C@@H]1NC(=O)[C@@H](NC[C@@H](O)[C@H](Cc2ccc(OCC(=O)OC)cc2)NC(=O)OC(C)(C)C)Cc2ccc(cc2)OCCCNC1=O [Compound 101]
HIV-1 protease; [3]
  IC50: 2 nM

## CCCCCCOC(=O)COc1ccc(C[C@H](NC(=O)OC(C)(C)C)[C@H](O)CN[C@H]2Cc3ccc(cc3)OCCCNC(=O)[C@H]([C@@H](C)CC)NC2=O)cc1 [Compound 105]
HIV-1 protease; [3]
  IC50: 2 nM

## CC(C)(C)OC(=O)N[C@@H](Cc1ccccc1)[C@H](O)CN[C@H]1Cc2ccc(cc2)OCCCNC(=O)[C@@H](CCC(N)=O)NC1=O [Compound 107]
HIV-1 protease
  protease inhibition, stated in words: slightly enhanced activity
HIV-1 protease; [3]
  IC50: 250 nM

## CC(C)(C)OC(=O)N[C@@H](Cc1ccccc1)[C@@H](O)CN[C@H]1Cc2ccc(cc2)OCCCNC(=O)[C@@H](CCC(N)=O)NC1=O [Compound 108]
HIV-1 protease
  protease inhibition, stated in words: slightly enhanced activity

## CC[C@H](C)[C@@H]1NC(=O)[C@@H](NC[C@@H](O)[C@@H]2Cc3ccc(cc3)OCCCC(=O)N[C@@H](CC(N)=O)C(=O)N2)Cc2ccc(cc2)OCCCNC1=O [Compound 109]
HIV-1 protease
  potency relative to compound 110: 100 -fold

## CC[C@H](C)[C@@H]1NC(=O)[C@@H](NC[C@@H](O)[C@@H]2Cc3ccc(cc3)OCCCC(=O)N[C@@H](C(C)C)C(=O)N2)Cc2ccc(cc2)OCCCNC1=O [Compound 111]
HIV-1 protease; Table 11, pH 6.5, 37° C., read-out: IC50
  IC50: 8 nM
HIV-1 protease; read-out: IC50
  IC50: 1 nM

## CC[C@H](C)[C@@H]1NC(=O)[C@@H]2CN(CCCCCNC1=O)CCN2C[C@@H](O)[C@@H]1Cc2ccc(cc2)OCCCC(=O)N[C@@H](C(C)C)C(=O)N1 [Compound 123]
HIV-1 protease
  protease inhibition, stated in words: more successfully mimics JG-365

## CC(C)C1NC(=O)CCCOc2ccc(cc2)CC(C(O)CNC2Cc3ccc(cc3)OCCCNC(=O)C(CCC(N)=O)NC2=O)NC1=O (stereo not shown) [Compound 131]
HIV-1 protease
  protease inhibition, stated in words: quite active

## Ac-LNFPIV-NH2 [Compound 85, reference compound]
HIV-1 protease; [2]
  IC50: 60 nM
HIV-1 protease; [4]
  IC50: 9 nM

## Ac-LVFFIV-NH2 [Compound 86, reference compound]
HIV-1 protease; [2]
  IC50: 5 nM

## Ac-SLNFPIV-NH2 [Compound 84, reference compound]
HIV-1 protease; [2]
  IC50: 22 nM
HIV-1 protease; [4]
  IC50: 1 nM

## Ac-Ser-Leu-Asn-Phe-[CHOH--CH2 ]-Pro-Ile-Val-OMe (Ac-SLNFPIV-OMe; also: hydroxyethylene isostere [CHOH-CH2] replaces the Phe-Pro amide bond) [JG-365, reference compound]
HIV-1 protease; R-isomer of JG-365, pH 6.5, 37° C., read-out: IC50 (Inhibitor Potency)
  IC50: 44 nM
HIV-1 protease; S-isomer of JG-365, pH 6.5, 37° C., read-out: IC50 (Inhibitor Potency)
  IC50: 6 nM
HIV
  anti-viral activity, stated in words: do not have anti-viral activity
HIV; at 100 μM
  activity against HIV in cells: inactive

## AcLeuAsnPhe[^* CHOH--CH2 N]ProIleValOMe [Compound 1, reference compound]
HIV-1 protease; AcLeuAsnPhe[CHOH--CH2 N]ProIleValOMe, pH 6.5, 37° C., read-out: IC50
  IC50: 60 nM
HIV-1 protease; versus JG-365
  reduction of protease inhibition on truncation of the Serine: 10 -fold
